Data reported in patent US4831151A, “Antimicrobial imidazolium derivatives” (Hoffmann-La Roche Inc., priority 1985, dated 1989).
Where a name gives a salt, the structure may show the parent alone.

Experiments:
Litomosoides carinii = assay: Filaricidal activity in cotton rats infected with Litomosoides carinii; type: in vivo, Litomosoides carinii in cotton rats (Sigmodon hispidus); conditions: s.c., treated 14 weeks after infection, dissected 42 days after treatment; for ED90: Litomosoides carinii, sc, 1008 h, read-out: ED90 (dosage at which 90% of the worms removed from the pleural cavity are dead)
Description: (§1) The filaricidal activity of the compounds of formula I can be determined, for example, on cotton rats (Sigmodon hispidus) which have been infected with Litomosoides carinii. The infection with L. carinii is transmitted by the blood-sucking mite Bdellonyssus bacoti in which the development of the microfilaria to infectious larvae takes place. The cotton rats are infected by exposing them to bites of infected mites. 14 weeks after the infection groups of 2-4 animals are treated subcutaneously with the compound to be tested. 42 days after treatment with the compound to be tested the experimental animals are dissected, whereby the adult filaria are removed from the pleural cavity. Living and dead or encapsulated worms are separated from one another and weighed. The filaricidal activity is expressed as the percentage proportion of dead macrofilaria per treatment group. The ED90 is then determined by means of […] analysis using the values from different dosage groups. The ED90 is that dosage at which 90% of the worms removed from the pleural cavity are dead. In the following Table there are compiled the results which have been obtained in the previously described test with representative members of the class of compound defined by general formula I. Moreover, the Table contains data concerning the acute toxicity of some of these compounds in mg per kg in the case of single oral administration to mice.

[1] = Acute toxicity, single oral administration to mice; conditions: mouse, in vivo, p.o.
Description: as §1

Compound | ED90 (Litomosoides carinii) [mg/kg] | LD50 [1] [mg/kg] | ED90 (dosage at which 90% of the worms removed from the pleural cavity are dead) (Litomosoides carinii) [mg/kg]
CCc1n(N=Cc2ccc(N(C)C)cc2)cc[n+]1N=Cc1ccc([N+](=O)[O-])cc1 | < 1 |  | 
CCc1n(N=Cc2ccc(N(C)C)cc2)cc[n+]1N=Cc1ccc(N(C)C)cc1 [1,3-bis[[(p-dimethylamino)benzylidene]amino]-2-ethylimidazolium acetate] | 0.25 |  | 
CCc1n(N=Cc2ccc(N(C)C)c3ccccc23)cc[n+]1N=Cc1ccc(N(C)C)c2ccccc12.[Cl-] [1,3-bis[[[4-(dimethylamino)-1-naphthyl]methylidene]amino]-2-ethyl-imidazolium chloride] | 3 | 312 to 625 | 
CCc1n(N=Cc2ccc(N(C)C)cc2)cc[n+]1N=Cc1ccc(N(C)C)cc1.[Cl-] [1,3-bis[[p-(dimethyl-amino)benzylidene]amino]-2-ethylimidazolium chloride] | 0.4 | 62.5 to 125 | 
CCCc1n(N=Cc2ccc(N(C)C)cc2)cc[n+]1N=Cc1ccc(N(C)C)cc1.[Cl-] [1,3-bis[[p-(dimethylamino)benzylidene]amino]-2-propyl-imidazolium chloride] | < 0.25 | 62.5 to 125 | 
CCc1n(N=Cc2ccc(N(CC)CC)cc2)cc[n+]1N=Cc1ccc(N(CC)CC)cc1 [1,3-bis[[p-diethylamino)benzylidene]amino]-2-ethyl-imidazolium chloride] | 0.75 |  | 
CCCCc1n(N=Cc2ccc(N(C)C)cc2)cc[n+]1N=Cc1ccc(N(C)C)cc1.[Cl-] [2-butyl-1,3-bis[[p-(dimethylamino)benzylidene]amino]imidazolium chloride] | < 0.25 |  | 
Cc1n(N=Cc2ccc(N(C)C)cc2)cc[n+]1N=Cc1ccc(N(C)C)cc1 [drawing 12, 1,3-bis[[p-(dimethylamino)benzylidene]amino]-2-methylimidazolium salts] |  | 80 to 156 | 1.6
Cc1n(N=Cc2ccc(N(C)C)cc2)cc[n+]1N=Cc1ccc(N(C)C)cc1 [drawing 13, 1,3-bis[[(p-dimethylamino)benzylidene]amino]-2-methylimidazolium acetate] | 0.85 |  | 
